# In patent US8791132B2, “Compounds and methods for treatment of hypertension” (Medivation Technologies, Inc., priority 2011, dated 2014):
# “And” between values parts separate entries of the source, which are not always exact repeats. Identical values can stand only once. Like-named read-outs stand apart in the source and are kept apart here.
# Key:
# [1] = target: T1, human recombinant adrenergic α2B receptor (Homo sapiens, UniProt P18089); assay: Radioligand binding, adrenergic α2B ([3H]Rauwolscine); conditions: for Percentage inhibition of ligand binding, Adrenergic α2B (0.03 μM) / Percentage inhibition of ligand binding, Adrenergic α2B (0.1 μM) / inhibition at 0.03 µM / inhibition at 0.1 µM / Percentage inhibition of ligand binding, Adrenergic α2B: [3H]Rauwolscine; for Ki: read-out: Ki α2B
# T1 construct: expressed in transfected cells; host or cells: CHO-K1
# T1 sequence (P18089 1-450): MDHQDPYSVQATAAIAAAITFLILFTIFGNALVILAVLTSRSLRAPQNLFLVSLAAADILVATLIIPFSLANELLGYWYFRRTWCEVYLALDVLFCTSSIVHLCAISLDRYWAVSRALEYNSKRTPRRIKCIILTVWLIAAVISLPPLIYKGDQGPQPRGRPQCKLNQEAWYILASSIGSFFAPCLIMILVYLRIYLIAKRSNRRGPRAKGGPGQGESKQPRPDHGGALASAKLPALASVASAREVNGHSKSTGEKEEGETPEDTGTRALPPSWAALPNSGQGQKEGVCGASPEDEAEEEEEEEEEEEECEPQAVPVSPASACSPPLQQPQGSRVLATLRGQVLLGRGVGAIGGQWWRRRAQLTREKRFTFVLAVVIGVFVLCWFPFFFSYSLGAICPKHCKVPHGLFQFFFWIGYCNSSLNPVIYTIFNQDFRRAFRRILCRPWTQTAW
# Summary of the method: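 Receptor expressed in CHO-K1 cells, assayed in 50 mM Tris-HCl pH 7.4 with 12.5 mM MgCl2, 1 mM EDTA and 0.2% BSA. Compounds were incubated with 2.5 nM [3H]Rauwolscine for 60 min at 25° C; 10 μM Prazosin defined non-specific binding. Filter counting gave percent inhibition of specific binding.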
# [2] = target: T2, human recombinant adrenergic α2A receptor (Homo sapiens, UniProt P08913); assay: Radioligand binding, adrenergic α2A ([3H]MK-912)
# T2 construct: expressed in transfected cells; host or cells: insect Sf9 cells
# T2 sequence (P08913 1-465): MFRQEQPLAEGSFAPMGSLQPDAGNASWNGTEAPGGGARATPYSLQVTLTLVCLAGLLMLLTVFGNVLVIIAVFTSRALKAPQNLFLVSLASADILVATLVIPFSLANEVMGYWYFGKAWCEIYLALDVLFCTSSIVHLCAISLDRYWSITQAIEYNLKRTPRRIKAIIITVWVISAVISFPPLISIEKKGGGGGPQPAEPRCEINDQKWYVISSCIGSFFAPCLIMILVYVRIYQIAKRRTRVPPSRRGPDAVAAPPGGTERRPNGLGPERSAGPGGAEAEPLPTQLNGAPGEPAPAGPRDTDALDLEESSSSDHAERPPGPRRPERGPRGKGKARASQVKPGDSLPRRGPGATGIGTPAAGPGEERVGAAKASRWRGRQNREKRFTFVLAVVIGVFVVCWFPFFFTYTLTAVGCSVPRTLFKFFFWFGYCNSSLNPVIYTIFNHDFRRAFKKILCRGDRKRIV
# Summary of the method: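 Sf9-expressed receptor was incubated with compound for 60 min at 25 °C in modified Tris-HCl buffer, pH 7.4. Nonspecific binding was taken as that remaining with 10 μM WB-4101.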
# [3] = target: T3, rat adrenergic α1B receptor (Rattus norvegicus, UniProt P15823); assay: Radioligand binding, adrenergic α1B ([3H]Prazosin); conditions: [3H]Prazosin
# T3 construct: rat adrenergic α1B receptor obtained from Wistar Rat liver; from tissue; host or cells: Wistar rat liver
# T3 sequence (P15823 1-515): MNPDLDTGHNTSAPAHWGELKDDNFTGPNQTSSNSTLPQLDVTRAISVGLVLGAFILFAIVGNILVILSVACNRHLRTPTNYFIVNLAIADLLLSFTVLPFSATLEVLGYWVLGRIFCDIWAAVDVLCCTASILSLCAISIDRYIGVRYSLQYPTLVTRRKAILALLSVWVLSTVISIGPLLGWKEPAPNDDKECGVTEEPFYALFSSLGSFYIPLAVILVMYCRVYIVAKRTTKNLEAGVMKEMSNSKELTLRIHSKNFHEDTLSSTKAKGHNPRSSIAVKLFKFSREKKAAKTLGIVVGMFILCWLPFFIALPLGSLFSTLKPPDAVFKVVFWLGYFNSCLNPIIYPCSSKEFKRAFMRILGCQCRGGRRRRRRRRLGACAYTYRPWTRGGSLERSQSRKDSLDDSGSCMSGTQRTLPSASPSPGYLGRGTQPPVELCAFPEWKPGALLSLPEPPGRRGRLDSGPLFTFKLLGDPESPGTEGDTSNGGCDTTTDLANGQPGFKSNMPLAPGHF
# Summary of the method: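 Filter binding with Wistar rat liver α1B preparation: test compound plus 0.25 nM [3H]prazosin, 1 h at 25° C in modified Tris-HCl buffer pH 7.4.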
# [4] = compound at 0.03 μM, repeat datapoints each shown, 0.03 µM
# [5] = compound at 0.1 μM, repeat datapoints each shown, 0.1 µM
# [6] = read-out: Percentage inhibition of ligand binding, Adrenergic α2B (0.03 μM), compound at 0.03 μM, repeat datapoints each shown
# [7] = read-out: Percentage inhibition of ligand binding, Adrenergic α2B (0.1 μM), compound at 0.1 μM, repeat datapoints each shown
# [8] = compound at 0.1 μM, [3H]MK-912, repeat datapoints each shown, 0.1 µM
# [9] = read-out: Percentage inhibition of ligand binding, Adrenergic α2A (0.1 μM), compound at 0.1 μM, [3H]MK-912, repeat datapoints each shown
# [10] = read-out: Percentage inhibition of ligand binding, Adrenergic α1B (0.03 μM), compound at 0.03 μM, repeat datapoints each shown
# [11] = read-out: Percentage inhibition of ligand binding, Adrenergic α1B (0.1 μM), compound at 0.1 μM, repeat datapoints each shown
# [12] = compound at 0.03 μM, repeat assays, each datapoint shown, read-out: Percentage inhibition of ligand binding, Adrenergic α2B
# [13] = compound at 0.1 μM, repeat assays, each datapoint shown, 0.1 µM
# [14] = compound at 0.1 μM, repeat assays, each datapoint shown, read-out: Percentage inhibition of ligand binding, Adrenergic α2B
# [15] = compound at 0.03 μM, [3H]MK-912, repeat assays, each datapoint shown, read-out: Percentage inhibition of ligand binding, Adrenergic α2A
# [16] = compound at 0.03 μM, repeat assays, each datapoint shown, read-out: Percentage inhibition of ligand binding, Adrenergic α1B
# [17] = compound at 0.1 μM, repeat assays, each datapoint shown, read-out: Percentage inhibition of ligand binding, Adrenergic α1B
# [18] = compound at 0.1 μM, [3H]MK-912, repeat assays, each datapoint shown, read-out: Percentage inhibition of ligand binding, Adrenergic α2A
# [19] = compound at 0.03 μM, repeat assays, each datapoint shown, 0.03 µM
SMILES,"Percentage inhibition of ligand binding, Adrenergic α2B (0.1 μM) [1, 5]",Ki [1],"inhibition at 0.03 µM [1, 6]","inhibition at 0.1 µM [1, 7]","Percentage inhibition of ligand binding, Adrenergic α2A (0.1 μM) [2, 8]","inhibition at 0.1 µM [2, 9]","Percentage inhibition of ligand binding, Adrenergic α1B (0.1 μM) [3, 5]","inhibition at 0.03 µM [3, 10]","inhibition at 0.1 µM [3, 11]","inhibition at 0.03 µM [1, 12]","inhibition at 0.1 µM [1, 14]","inhibition at 0.03 µM [3, 16]","Percentage inhibition of ligand binding, Adrenergic α1B [3, 13]","inhibition at 0.1 µM [3, 17]","inhibition at 0.1 µM [2, 18]",also measured
"Cc1ccc2c(c1)c1c(n2CC(O)c2ccc(C(N)=O)nc2)CCN(C)C1 (single isomer, unassigned) [144b, 5-[2-(2,8-dimethyl-1,2,3,4-tetrahydro-pyrido[4,3-b]indol-5-yl)-1-hydroxy-ethyl]-pyridine-2-carboxylic acid amide]",102%,1.7 nM and 2.36 nM,83%,100%,4%,3%,60% and 66%,28%,53%,,,,,,,"Percentage inhibition of ligand binding, Adrenergic α2B (0.03 μM) [1, 4]: 85% and 87%; Percentage inhibition of ligand binding, Adrenergic α1B (0.03 μM) [3, 4]: 36%"
"Cc1ccc2c(c1)c1c(n2CC(C)(O)c2cnccn2)CCN2CCCC12 (single isomer, unassigned) [176a]",,0.53 nM,,105%,32%,,79%,52%,,,,,,,,"Percentage inhibition of ligand binding, Adrenergic α2B (0.03 μM) [1, 4]: 93% and 98% and 100%"
"Cc1cnc2c(c1)c1c(n2CCc2ccc(C)nc2)CCN(C)C1 [II-110, 3,6-dimethyl-9-(2-(6-methylpyridin-3-yl)ethyl)-6,7,8,9-tetrahydro-5H-pyrrolo[2,3-b:4,5-c′]dipyridine]",,,11%,47%,2%,1%,36%,,25%,,,,,,,
Cc1ccc2c(c1)c1c(n2CC2(c3ccccc3)OCCO2)CCN(C)C1 [compound 83],,,,,,,,,,63%,78%,,15%,9%,21%,"Percentage inhibition of ligand binding, Adrenergic α2A ([2]; compound at 0.1 μM, [3H]MK-912, repeat assays, each datapoint shown, 0.1 µM): 29%"
Cc1ccc2c(c1)c1c(n2CC(C)(O)c2ccc(O)cc2)CCN(C)C1 (stereo not drawn) [compound 98],103%,,,96%,32%,26%,83%,,81%,,,,,,,
C/C(=C\n1c2c(c3cc(C)ccc31)CN(C)CC2)c1ccncn1 [compound 101],76%,,,63%,15%,14%,79%,,61%,,,,,,,
Cc1ccc2c(c1)c1c(n2C2=C(c3ccncc3)CCC2)CCN(C)C1 [compound 114],71%,17.4 nM,42%,58%,,21%,,,15%,,,,,,,

# The next lines start with results.
"Percentage inhibition of ligand binding, Adrenergic α2B (0.1 μM) [1, 5]",Ki [1],"inhibition at 0.03 µM [1, 6]","inhibition at 0.1 µM [1, 7]","Percentage inhibition of ligand binding, Adrenergic α2A (0.1 μM) [2, 8]","inhibition at 0.1 µM [2, 9]","Percentage inhibition of ligand binding, Adrenergic α1B (0.1 μM) [3, 5]","inhibition at 0.03 µM [3, 10]","inhibition at 0.1 µM [3, 11]","inhibition at 0.03 µM [1, 12]","inhibition at 0.1 µM [1, 14]","inhibition at 0.03 µM [3, 16]","Percentage inhibition of ligand binding, Adrenergic α1B [3, 13]","inhibition at 0.1 µM [3, 17]","inhibition at 0.1 µM [2, 18]",SMILES,also measured
,0.64 nM,,,,,,,,99%,100%,24%,54%,51%,,Cc1ccc2c(c1)c1c(n2CC(O)c2ccncc2)CCN(C)C1 (stereo not drawn) [compound 3],"Percentage inhibition of ligand binding, Adrenergic α2B [1, 13]: 103%; Ki [2]: 0.26 nM; inhibition at 0.03 µM [2, 15]: 4%"
,,,,,,,,,100%,96%,,21%,14%,13%,"Cc1ccc2c(c1)c1c(n2CC(C)(O)c2cccnc2)CCN(C)C1 (stereo not drawn) [compound 5, 1-(1,2,3,4-tetrahydro-2,8-dimethylpyrido[4,3-b]indol-5-yl)-2-(pyridin-3-yl)propan-2-ol]",
,5.89 nM,,,,,,,,65%,85%,28%,,60%,30%,Cc1ccc2c(c1)c1c(n2CCc2cccnc2)CCN(C)C1 [compound 61],"Percentage inhibition of ligand binding, Adrenergic α2B [1, 19]: 80%; Percentage inhibition of ligand binding, Adrenergic α2B [1, 13]: 94%"
,,,,,,,,,40%,60%,-3%,,26%,12%,CCN1CCc2c(c3cc(C)ccc3n2CCc2ccncc2)C1 [compound 85],
,9.84 nM and 10.7 nM and 12 nM,,87%,,,,32%,58%,53%,82%,25%,53%,52%,5%,Cc1ccc2c(c1)c1c(n2CCc2ccc(CO)nc2)CCN(C)C1 [compound 91],"Percentage inhibition of ligand binding, Adrenergic α2B [1, 19]: 56%; Percentage inhibition of ligand binding, Adrenergic α2B [1, 13]: 83%; inhibition at 0.03 µM [2, 15]: 6%; Percentage inhibition of ligand binding, Adrenergic α1B [3, 19]: 28%"
70%,20.5 nM,39%,55%,48%,45%,22%,4%,21%,,,,,,,"Cc1ccc2c(c1)c1c(n2CNc2ccccn2)CCN(C)C1 [compound 120, (2,8-dimethyl-1,2,3,4-tetrahydro-pyrido[4,3-b]indol-5-ylmethyl)-pyridin-2-yl-amine]","Ki [2]: 65.8 nM; inhibition at 0.03 µM ([2]; read-out: Percentage inhibition of ligand binding, Adrenergic α2A (0.03 μM), compound at 0.03 μM, [3H]MK-912, repeat datapoints each shown): 25%"
